In patent US3994882A, “Nitrofuran derivatives, process for the preparation thereof and compositions containing same as active ingredient” (Kabushiki Kaisha Ueno Seiyaku Oyo Kenkyujo, priority 1974, dated 1976):
In brackets after ≈: the same amount, converted by molar mass.

Columns and labels:
[1] = system: Bordetella bronchiseptica; experiment: Minimum growth inhibiting concentration, microorganisms that infect domestic animals (Table 2); assay type: cell-based; conditions: 4 strains, Heart infusion Agar, 48 hours
Experimental: (§1) The minimum growth inhibiting concentrations were measured under identical conditions as in the case of Table 1, except that culture media indicated above were used and, in the case of that asterisked, the culture was carried out for 5 days, while the others were cultivated for 48 hours.

[2] = system: Pasteurella multocida Kobe-5; experiment: as above; assay type: cell-based; conditions: KOBE5, TSB-Agar 10% rabbit blood added, 48 hours
Experimental: as §1

[3] = system: Erysiperothrix rhusiopatiae Agata; experiment: as above; assay type: cell-based; conditions: TSB-Agar 10% rabbit blood added, 48 hours
Experimental: as §1

Staphylococcus aureus = experiment: as above; assay type: cell-based; conditions: 15 strains, TSB-agar, 48 hours
Experimental: as §1

Salmonella purollum = experiment: as above; assay type: cell-based; conditions: 42 strains, TSB-Agar, 48 hours
Experimental: as §1

Hemophilus galinalum = experiment: as above; assay type: cell-based; conditions: 2 strains, TSB-Agar 10% rabbit blood added, 48 hours
Experimental: as §1

Escherichia coli = experiment: as above; assay type: cell-based; conditions: 36 strains, TSB-Agar, 48 hours
Experimental: as §1

Mycolasma galli-septicum = experiment: as above; assay type: cell-based; conditions: 120 h, 6 strains, Hofstad, 5 days
Experimental: as §1

[4] = system: Staphlococcus aureus Kawanabe II; experiment: Curative effects on Staphlomycosis of fowl (Table 7); assay type: in vivo; conditions: two weeks, chicks died / chicks tested
Experimental: A culture liquid obtained by cultivation of Staphlococcus aureus Kawanabe II for 20 hours at 37° C. in a heart infusion culture medium was injected intravenously into 3-week-old chicks at the rate of 0.2 ml per chick. Nitrofuran derivatives mixed in amounts indicated below in the feeds were then fed these chicks for two weeks. In the table the expression, "death rate" has the following meaning. For instance, the value 3/9 denotes that three out of the nine chicks submitted to the test died.

vibroid ulcers = experiment: Medicinal bath of young yellowtail with disease seeming to be vibroid ulcers; assay type: in vivo; conditions: of 30 fishes; 10 ppm seawater bath 10 minutes; reared further 20 days; untreated group 3 survivors
Experimental: In raising young yellowtail of a body length about 10-15 cm, since a disease seeming to be vibroid ulcers started to appear, 90 of the fishes were collected and divided into three groups. The first group of 30 fishes were reared as heretofore practiced with no change. On the other hand, the second and third groups of 30 fishes were placed for 10 minutes in respectively medicinal baths containing seawater solutions of 10 ppm of the compound of Example 1 ##SPC40##
and the compound of Example 9 ##SPC41##
following which the respective groups of fishes were returned to normal seawater where they were reared for a further 20 days. The number of fishes surviving in the case of the first group was three fishes, whereas in the case of the second and third groups, the numbers of fishes surviving were 26 and 25 fishes, respectively.

SMILES | MIC [1] [µg/mL] | MIC [2] [µg/mL] | MIC [3] [µg/mL] | MIC (Staphylococcus aureus) [µg/mL] | MIC (Salmonella purollum) [µg/mL] | MIC (Hemophilus galinalum) [µg/mL] | MIC (Escherichia coli) [µg/mL] | MIC (Mycolasma galli-septicum) [µg/mL] | Death rate ([4]; 50 ppm in feed) | Death rate ([4]; 100 ppm in feed) | Death rate ([4]; 200 ppm in feed) | Death rate ([4]; 400 ppm in feed) | Death rate ([4]; 800 ppm in feed) | Number of fishes surviving (vibroid ulcers) [fishes]
O=C(NCCO)c1ccc(C=Cc2ccc([N+](=O)[O-])o2)cc1 [Example 1, 2-Para-[2'-(5"-nitro-2"-furyl)-vinyl]-benzoylaminoethanol] | 25 (≈ 82.7 µM) | 0.15 (≈ 0.496 µM) | 0.07 (≈ 0.232 µM) | 0.2 to 25 (≈ 0.662 to 82.7 µM) | 1.6 to 12.5 (≈ 5.29 to 41.4 µM) | 0.04 to 1.5 (≈ 0.132 to 4.96 µM) | 0.5 to 25 (≈ 1.65 to 82.7 µM) | 0.1 (≈ 0.331 µM) | 3/9 | 2/9 | 2/9 | 2/9 | 1/9 | 26
O=C(NCC(O)CO)c1ccc(C=Cc2ccc([N+](=O)[O-])o2)cc1 (stereo not shown) [Example 9, 3-Para-[2'-(5"-nitro-2"-furyl)-vinyl]-benzoylamino-1,2-propanediol] | 25 (≈ 75.2 µM) | 0.08 (≈ 0.241 µM) | 0.15 (≈ 0.451 µM) | 0.2 to 25 (≈ 0.602 to 75.2 µM) | 1.6 to 25 (≈ 4.81 to 75.2 µM) | 0.1 to 1.5 (≈ 0.301 to 4.51 µM) | 0.5 to 12.5 (≈ 1.5 to 37.6 µM) | 0.2 (≈ 0.602 µM) | 3/9 | 2/9 | 2/9 | 2/9 | 2/9 | 25
